Measurements as given in publication PMC9977887, “Crocodile defensin (CpoBD13) antifungal activity via pH-dependent phospholipid targeting and membrane disruption” (Nature Communications, 2023).
Where no end group is shown, it is not given here.

Tests used:
C. albicans ATCC 10231 = experiment: Propidium iodide uptake assay in pH-buffered conditions (MES buffer); assay type: cell-based, Candida albicans; conditions: 30 min
Protocol: For fungal growth assays, overnight cultures of C. albicans ATCC 10231 cells (yeast peptone dextrose broth, 30°C, shaking at 160 rpm) were pelleted (2000 g, 5 min), washed once in 0.5× potato dextrose broth (BD Biosciences, Franklin Lakes, NJ) and finally resuspended in the same media. Cells were seeded onto a 96-well plate (400 cells, 50 µL) and treated with an equal volume of varying concentrations of defensin in 0.5× potato dextrose broth. After incubating the samples (24 h, 30 °C), the plates were shaken to distribute the cells and growth was determined by performing a 9-well scan (600 nm) using a Spectramax M5e microplate reader (Molecular Devices, San Jose, CA). For assays testing defensin salt tolerance, C. albicans cells were instead resuspended in 1x potato dextrose broth and treated with an equal volume of CpoBD13 + NaCl solution at their intended concentrations. Propidium iodide (PI) uptake assays were performed by preparing the cells as per the standard growth inhibition assay however they were instead seeded onto a U-bottom 96-well plate (50,000 cells, 25 µL). […] For PI uptake experiments performed at a specific pH, the same method was followed with the exception that cells were resuspended in 1× potato dextrose broth while defensin titrations were diluted in 40 mM MES buffer at the intended pH. An example PI uptake gating strategy is presented in Supplementary Fig. 1d.

U937 cells = experiment: MTT/MTS cell viability assay; assay type: cell-based, human; conditions: 48 h, at the assessed concentrations
From the text: Human epithelial cervical cancer (HeLa, ATCC, CCL-2), prostate cancer (PC3, ATCC, CRL-1435) and histiocytic lymphoma (U937, ATCC, CRL-1593.2) cells were obtained from the American Type Culture Collection (Gaithersburg, Maryland) and cultured in RPMI-1640 medium (Thermo Fisher Scientific, Waltham, MA) supplemented with 5–10% (v/v) foetal bovine serum (FBS), 100 U/mL penicillin and 100 U/mL streptomycin (Invitrogen, Carlsbad, CA). Adult human dermal fibroblasts (AHDF, Lonza, CC-2511) cells were obtained from Lonza (Basel, Switzerland) and cultured in Dulbecco’s Modified Eagle Medium (DMEM) (Thermo Fisher Scientific) supplemented with 10% (v/v) FBS, 100 U/mL penicillin and 100 U/mL streptomycin. Human umbilical vein epithelial (HUVEC, Lonza, CC-2519) cells were obtained from Lonza and cultured in EBM-2 medium supplemented with EGM-2 SingleQuots (Lonza). All cell lines were maintained at 37 °C in a humidified incubator with 5% CO2.
Cell viability assays were performed using MTT/MTS as previously described[8].

[1] = Calcein-encapsulated liposome lysis assay; assay type: biochemical
Protocol: Liposomes were prepared using natural chicken egg L-α-phophatidylcholine and L-α-phosphatidic acid dissolved in chloroform (Avanti Polar Lipids), and liposome pulldowns (at pH 7.4) and calcein-encapsulated liposome lysis assays were performed as previously described. For liposome pulldowns performed at pH 5.5, the same protocol was used with minor variations. The desiccated lipid films were resuspended in 20 mM MES pH 7.4 and were washed in the same buffer during the centrifugation process. After the final wash step, the liposome pellets were resuspended in 20 mM MES pH 5.5 and incubated with CpoBD13 or mutants thereof (also prepared in the same acidic buffer).

## CpoBD13: saltwater crocodile β-defensin 13, histidine-rich, three disulphide bonds, recombinantly expressed in Pichia pastoris (NGSYYSTLQCRNNHGHCRRLCFHGEQWIGNCNGRHQHCCK; disulfide (positions not given here); also: three disulphide bonds, pairings not given here)
C. albicans ATCC 10231; pH 5.5
  membrane permeabilising activity: highly effective
C. albicans ATCC 10231; pH 6.5
  membrane permeabilising activity: significantly reduced
C. albicans ATCC 10231; pH 7.5
  membrane permeabilising activity: most dramatic loss of activity
U937 cells
  effect on cell viability: did not affect the viability
[1]; 20 µM, 30 min, calcein release
  lysis of PC:PA liposomes relative to PC only liposomes: significant increase in the lysis
[1]; PC liposomes, replicate 1
  Lysis (%): 54.3884%
[1]; PC liposomes, replicate 2
  Lysis (%): 55.3559%
[1]; PC liposomes, replicate 3
  Lysis (%): 54.0992%
[1]; PC:PA liposomes, replicate 1
  Lysis (%): 67.3935%
[1]; PC:PA liposomes, replicate 2
  Lysis (%): 66.6111%
[1]; PC:PA liposomes, replicate 3
  Lysis (%): 65.2527%
[1]; PC:PA, 20 µM, 0 min, replicate 1
  Lysis (%): 25.7371%
[1]; PC:PA, 20 µM, 0 min, replicate 2
  Lysis (%): 19.5617%
[1]; PC:PA, 20 µM, 0 min, replicate 3
  Lysis (%): 31.0288%
[1]; PC:PA, 20 µM, 2 min, replicate 1
  Lysis (%): 44.3847%
[1]; PC:PA, 20 µM, 2 min, replicate 2
  Lysis (%): 47.8762%
[1]; PC:PA, 20 µM, 2 min, replicate 3
  Lysis (%): 47.362%
[1]; PC:PA, 20 µM, 4 min, replicate 1
  Lysis (%): 50.7757%
[1]; PC:PA, 20 µM, 4 min, replicate 2
  Lysis (%): 55.3375%
[1]; PC:PA, 20 µM, 4 min, replicate 3
  Lysis (%): 52.3336%
[1]; PC:PA, 20 µM, 6 min, replicate 1
  Lysis (%): 56.1428%
[1]; PC:PA, 20 µM, 6 min, replicate 2
  Lysis (%): 57.6724%
[1]; PC:PA, 20 µM, 6 min, replicate 3
  Lysis (%): 56.2525%
[1]; PC:PA, 20 µM, 8 min, replicate 1
  Lysis (%): 57.9433%
[1]; PC:PA, 20 µM, 8 min, replicate 2
  Lysis (%): 61.2343%
[1]; PC:PA, 20 µM, 8 min, replicate 3
  Lysis (%): 57.4403%
[1]; PC:PA, 20 µM, 10 min, replicate 1
  Lysis (%): 60.1091%
[1]; PC:PA, 20 µM, 10 min, replicate 2
  Lysis (%): 61.4149%
[1]; PC:PA, 20 µM, 10 min, replicate 3
  Lysis (%): 58.1894%
[1]; PC:PA, 20 µM, 12 min, replicate 1
  Lysis (%): 61.5771%
[1]; PC:PA, 20 µM, 12 min, replicate 2
  Lysis (%): 62.8368%
[1]; PC:PA, 20 µM, 12 min, replicate 3
  Lysis (%): 59.7071%
[1]; PC:PA, 20 µM, 14 min, replicate 1
  Lysis (%): 62.1444%
[1]; PC:PA, 20 µM, 14 min, replicate 2
  Lysis (%): 63.0568%
[1]; PC:PA, 20 µM, 14 min, replicate 3
  Lysis (%): 60.7639%
[1]; PC:PA, 20 µM, 16 min, replicate 1
  Lysis (%): 64.0158%
[1]; PC:PA, 20 µM, 16 min, replicate 2
  Lysis (%): 63.5735%
[1]; PC:PA, 20 µM, 16 min, replicate 3
  Lysis (%): 61.3601%
[1]; PC:PA, 20 µM, 18 min, replicate 1
  Lysis (%): 65.2175%
[1]; PC:PA, 20 µM, 18 min, replicate 2
  Lysis (%): 63.6472%
[1]; PC:PA, 20 µM, 18 min, replicate 3
  Lysis (%): 61.6924%
[1]; PC:PA, 20 µM, 20 min, replicate 1
  Lysis (%): 64.1335%
[1]; PC:PA, 20 µM, 20 min, replicate 2
  Lysis (%): 65.2803%
[1]; PC:PA, 20 µM, 20 min, replicate 3
  Lysis (%): 62.4881%
[1]; PC:PA, 20 µM, 22 min, replicate 1
  Lysis (%): 64.7756%
[1]; PC:PA, 20 µM, 22 min, replicate 2
  Lysis (%): 65.3585%
[1]; PC:PA, 20 µM, 22 min, replicate 3
  Lysis (%): 63.4838%
[1]; PC:PA, 20 µM, 24 min, replicate 1
  Lysis (%): 65.4459%
[1]; PC:PA, 20 µM, 24 min, replicate 2
  Lysis (%): 66.2461%
[1]; PC:PA, 20 µM, 24 min, replicate 3
  Lysis (%): 64.0406%
[1]; PC:PA, 20 µM, 26 min, replicate 1
  Lysis (%): 65.9416%
[1]; PC:PA, 20 µM, 26 min, replicate 2
  Lysis (%): 66.5138%
[1]; PC:PA, 20 µM, 26 min, replicate 3
  Lysis (%): 64.3943%
[1]; PC:PA, 20 µM, 28 min, replicate 1
  Lysis (%): 66.2501%
